In patent US7229651B2, “Dietary supplements containing natural ingredients” (Melaleuca, Inc., priority 1998, dated 2007):

What was measured:
[1] = test system: in vivo platelet activity (acute platelet thrombus formation); conditions: cited from earlier work
platelet activity = conditions: aspirin, blood aggregometry test; cited from earlier work
LDL cholesterol = test: Copper ion catalysed LDL cholesterol oxidation (conjugated dienes at 234 nm, lag time); format: biochemical, human
Description: LDL cholesterol oxidation or protection therefrom can be determined by several methods. Kleinveld et al., Clin. Chem., 38(10):2066–2072 (1992) describes the methods for the LDL oxidation experiments described and used herein. A preferred way to practice the method encompasses extracting LDL cholesterol from whole blood samples collected from a subject using standard techniques. The extracted LDL cholesterol is divided into control and experimental samples. LDL oxidation is catalyzed by adding a copper ion solution to each LDL cholesterol sample. Copper ions are known to catalyze and enhance LDL cholesterol oxidation. […]
Copper ions accelerate the production of conjugated dienes in LDL cholesterol oxidation, which absorb light at 234 nm. Therefore, LDL cholesterol oxidation is monitored by following the increase in absorbance at 234 nm as a function of time as shown in FIG. 6. […]
As described above, LDL cholesterol oxidation is commonly measured by observing absorbance at 234 nm (Abs234nm) as a function of time while the LDL cholesterol is exposed to oxidative conditions. The antioxidant effectiveness of PROVEXCV™ and other substances was determined.
LDL cholesterol was prepared from human volunteer blood samples. […] To each sample a measured amount of copper ions was added.
After mixing, the Abs234nm of each solution was then monitored as a function of time. […]

| Compound | dogs with renewed CFR's on epinephrine infusion ([1]; after abolishment of CFR's with 5–10 mg/kg of aspirin) | effect on CFR's ([1]; aspirin, Folts model, literature) | dosage at which platelet activity is inhibited ([1]; aspirin, known value) [mg/kg] | reactivation of inhibited platelet activity on epinephrine ([1]; aspirin, epinephrine 0.2 μg/Kg/min intravenously) | decrease of platelet activity, collagen stimulated (platelet activity) | lag time before LDL oxidation begins vs native LDL (LDL cholesterol; Vitamin E 5.3 mg/L, CuCl2 5 μmol/L, 30° C., FIG. 8) | time LDL cholesterol protected from oxidation (lag time) (LDL cholesterol; vitamin E at the described concentration, copper ions) |
| --- | --- | --- | --- | --- | --- | --- | --- |
| CC(=O)Oc1ccccc1C(=O)O [aspirin] | 50–60 % of dogs | eliminates CFR's | 5 | can be reactivated | 30–40% | – | – |
| vitamin E | – | – | – | – | – | delayed | about 95 minutes |
